Measured values published in ChEMBL document CHEMBL1201862, “PubChem BioAssay data set” (2004).
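Five compound concentrations were applied to cells in 96-well plates for 48 hours; endpoints were derived by simple linear interpolation of the resulting dose-response curve. Abbreviation: GI50, concentration required for 50% inhibition of growth.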 The source made the active and inactive calls. Rule as the data show it: active = GI50 up to about 1.1 µM and inactive = higher.

Tests used:
Assay in all cases: NCI tumour cell line growth inhibition, 48 h
[1] = system: 786-0
[2] = system: A498
[3] = system: A549
[4] = system: ACHN
[5] = system: BT-549
[6] = system: CAKI-1
[7] = system: CCRF-CEM
[8] = system: COLO 205
[9] = system: DU-145
[10] = system: EKVX
[11] = system: HCC 2998
[12] = system: HCT-116
[13] = system: HCT-15
[14] = system: HL-60
[15] = system: HOP-62
[16] = system: HOP-92
[17] = system: HT-29
[18] = system: Hs-578T
[19] = system: IGROV-1
[20] = system: K562
[21] = system: KM12
[22] = system: LOX IMVI
[23] = system: M14
[24] = system: MCF7
[25] = system: MDA-MB-231
[26] = system: MDA-MB-435
[27] = system: MDA-N
[28] = system: MOLT-4
[29] = system: Malme-3M
[30] = system: NCI-H226
[31] = system: NCI-H23
[32] = system: NCI-H460
[33] = system: NCI-H522
[34] = system: NCI/ADR-RES
[35] = system: OVCAR-3
[36] = system: OVCAR-4
[37] = system: OVCAR-5
[38] = system: OVCAR-8
[39] = system: PC-3
[40] = system: RPMI-8226
[41] = system: RXF 393
[42] = system: SF-295
[43] = system: SF-539
[44] = system: SK-MEL-2
[45] = system: SK-MEL-5
[46] = system: SK-OV-3
[47] = system: SN12C
[48] = system: SNB-19
[49] = system: SNB-75
[50] = system: SR
[51] = system: SW-620
[52] = system: TK-10
[53] = system: U-251
[54] = system: UACC-257
[55] = system: UACC-62
[56] = system: UO-31
[57] = system: SF-268
[58] = system: SK-MEL-28
[59] = system: T47D

`N#Cc1cc(C#N)c(N)nc1N` was tested, and the GI50 [1] was > 100 µM (inactive), the GI50 [2] was > 100 µM (inactive) and the GI50 [3] was > 100 µM (inactive). For the same compound, the GI50 [4] was > 100 µM (inactive), the GI50 [5] was > 100 µM (inactive) and the GI50 [6] was > 100 µM (inactive). For the same compound, the GI50 [7] was > 100 µM (inactive), the GI50 [8] was > 100 µM (inactive) and the GI50 [9] was 43.6 µM (inactive). For the same compound, the GI50 [10] was > 100 µM (inactive), the GI50 [11] was > 100 µM (inactive) and the GI50 [12] was > 100 µM (inactive). For the same compound, the GI50 [13] was greater than 100 µM, the GI50 [14] was > 100 µM (inactive) and the GI50 [15] was > 100 µM (inactive). For the same compound, the GI50 [16] was > 100 µM (inactive), the GI50 [17] was > 100 µM (inactive) and the GI50 [18] was > 100 µM (inactive). The GI50 [19] was > 100 µM (inactive), the GI50 [20] was > 100 µM (inactive) and the GI50 [21] was > 100 µM (inactive). The GI50 [22] was 29.9 µM (inactive), the GI50 [23] was > 100 µM (inactive) and the GI50 [24] was > 100 µM (inactive). The GI50 [25] was > 100 µM (inactive), the GI50 [26] was > 100 µM (inactive) and the GI50 [27] was > 100 µM (inactive). The GI50 [28] was > 100 µM (inactive), the GI50 [29] was > 100 µM (inactive) and the GI50 [30] was > 100 µM (inactive). For the same compound, the GI50 [31] was > 100 µM (inactive), the GI50 [32] was > 100 µM (inactive) and the GI50 [33] was > 100 µM (inactive). The GI50 [34] was > 100 µM (inactive), the GI50 [35] was > 100 µM (inactive) and the GI50 [36] was > 100 µM (inactive). For the same compound, the GI50 [37] was > 100 µM (inactive), the GI50 [38] was > 100 µM (inactive) and the GI50 [39] was > 100 µM (inactive). The GI50 [40] was > 100 µM (inactive), the GI50 [41] was > 100 µM (inactive) and the GI50 [42] was > 100 µM (inactive). For the same compound, the GI50 [43] was > 100 µM (inactive), the GI50 [44] was > 100 µM (inactive) and the GI50 [45] was > 100 µM (inactive). For the same compound, the GI50 [46] was > 100 µM (inactive), the GI50 [47] was > 100 µM (inactive) and the GI50 [48] was > 100 µM (inactive). For the same compound, the GI50 [49] was > 100 µM (inactive), the GI50 [50] was 19.1 µM (inactive) and the GI50 [51] was > 100 µM (inactive). The GI50 [52] was > 100 µM (inactive), the GI50 [53] was > 100 µM (inactive) and the GI50 [54] was > 100 µM (inactive). For the same compound, the GI50 [55] was > 100 µM (inactive) and the GI50 [56] was > 100 µM (inactive).

For `Cc1cccc(NC(Nc2cccc(C)c2)=C(C(Cl)=C(Cl)Cl)[N+](=O)[O-])c1`, the GI50 [1] was 14.7 µM (inactive), the GI50 [2] was 36.7 µM (inactive) and the GI50 [3] was 22 µM (inactive). The GI50 [4] was 15.7 µM (inactive), the GI50 [5] was 11.6 µM (inactive) and the GI50 [6] was 14.7 µM (inactive). For the same compound, the GI50 [7] was 63.5 µM (inactive), the GI50 [8] was 12.6 µM (inactive) and the GI50 [9] was 18.7 µM (inactive). For the same compound, the GI50 [10] was 18.1 µM (inactive), the GI50 [11] was 22.8 µM (inactive) and the GI50 [12] was 5.31 µM (inactive). The GI50 [13] was 13.1 µM, the GI50 [15] was 16.7 µM (inactive) and the GI50 [17] was 15.3 µM (inactive). The GI50 [19] was 2.28 µM (inactive), the GI50 [20] was 50.8 µM (inactive) and the GI50 [21] was 19.5 µM (inactive). For the same compound, the GI50 [22] was 8.99 µM (inactive), the GI50 [23] was 16.1 µM (inactive) and the GI50 [24] was 22.3 µM (inactive). For the same compound, the GI50 [25] was 3.38 µM (inactive), the GI50 [26] was 8.87 µM (inactive) and the GI50 [27] was 7.45 µM (inactive). The GI50 [28] was 2.17 µM (inactive), the GI50 [29] was 14.4 µM (inactive) and the GI50 [30] was 3.35 µM (inactive). The GI50 [31] was 9.12 µM (inactive), the GI50 [32] was 14.2 µM (inactive) and the GI50 [33] was 6.52 µM (inactive). The GI50 [34] was 14 µM (inactive), the GI50 [35] was 9.31 µM (inactive) and the GI50 [36] was 22.8 µM (inactive). The GI50 [37] was 19.6 µM (inactive), the GI50 [38] was 12.3 µM (inactive) and the GI50 [39] was 19.9 µM (inactive). The GI50 [40] was 8.11 µM (inactive), the GI50 [41] was 3.94 µM (inactive) and the GI50 [57] was 13.6 µM (inactive). For the same compound, the GI50 [42] was 14 µM (inactive), the GI50 [43] was 10.1 µM (inactive) and the GI50 [58] was 17.3 µM (inactive). For the same compound, the GI50 [44] was 16.4 µM (inactive), the GI50 [45] was 5.98 µM (inactive) and the GI50 [46] was 22.3 µM (inactive). The GI50 [47] was 7.59 µM (inactive), the GI50 [48] was 25.8 µM (inactive) and the GI50 [49] was 25.2 µM (inactive). For the same compound, the GI50 [50] was 3.81 µM (inactive), the GI50 [51] was 14.8 µM (inactive) and the GI50 [59] was 11.9 µM (inactive). The GI50 [52] was 12.4 µM (inactive), the GI50 [53] was 12.6 µM (inactive) and the GI50 [54] was 19.3 µM (inactive). The GI50 [55] was 13.4 µM (inactive) and the GI50 [56] was 11.8 µM (inactive).

In the case of `CN1CCN([C@H]2C[C@H]3[C@@H]4CC=C5C[C@@H](O)CC[C@]5(C)[C@H]4CC[C@]3(C)C2=O)CC1`, the GI50 [1] is reported as > 100 µM (inactive), the GI50 [2] is reported as > 100 µM (inactive) and the GI50 [3] is reported as > 100 µM (inactive). The GI50 [4] was > 100 µM (inactive), the GI50 [5] was > 100 µM (inactive) and the GI50 [6] was > 100 µM (inactive). The GI50 [7] was > 100 µM (inactive), the GI50 [8] was > 100 µM (inactive) and the GI50 [10] was > 100 µM (inactive). The GI50 [11] was > 100 µM (inactive), the GI50 [12] was > 100 µM (inactive) and the GI50 [13] was greater than 100 µM. The GI50 [14] was 31.8 µM (inactive), the GI50 [15] was > 100 µM (inactive) and the GI50 [16] was > 100 µM (inactive). For the same compound, the GI50 [17] was 42.2 µM (inactive), the GI50 [18] was > 100 µM (inactive) and the GI50 [19] was > 100 µM (inactive). The GI50 [20] was 34.3 µM (inactive), the GI50 [21] was > 100 µM (inactive) and the GI50 [22] was > 100 µM (inactive). The GI50 [23] was > 100 µM (inactive), the GI50 [24] was > 100 µM (inactive) and the GI50 [25] was > 100 µM (inactive). The GI50 [26] was > 100 µM (inactive), the GI50 [27] was > 100 µM (inactive) and the GI50 [28] was > 100 µM (inactive). The GI50 [29] was > 100 µM (inactive), the GI50 [30] was > 100 µM (inactive) and the GI50 [31] was > 100 µM (inactive). The GI50 [32] was > 100 µM (inactive), the GI50 [33] was > 100 µM (inactive) and the GI50 [34] was > 100 µM (inactive). For the same compound, the GI50 [35] was > 100 µM (inactive), the GI50 [36] was > 100 µM (inactive) and the GI50 [37] was > 100 µM (inactive). The GI50 [38] was > 100 µM (inactive), the GI50 [39] was > 100 µM (inactive) and the GI50 [40] was 91 µM (inactive). The GI50 [41] was > 100 µM (inactive), the GI50 [57] was > 100 µM (inactive) and the GI50 [42] was > 100 µM (inactive). The GI50 [43] was 62.5 µM (inactive), the GI50 [58] was > 100 µM (inactive) and the GI50 [44] was > 100 µM (inactive). The GI50 [45] was > 100 µM (inactive), the GI50 [46] was > 100 µM (inactive) and the GI50 [47] was > 100 µM (inactive). For the same compound, the GI50 [48] was > 100 µM (inactive), the GI50 [49] was > 100 µM (inactive) and the GI50 [50] was 29.4 µM (inactive). The GI50 [51] was > 100 µM (inactive), the GI50 [59] was > 100 µM (inactive) and the GI50 [52] was > 100 µM (inactive). The GI50 [53] was > 100 µM (inactive), the GI50 [54] was > 100 µM (inactive) and the GI50 [55] was > 100 µM (inactive). The GI50 [56] was > 100 µM (inactive).
